In PMC5569935, “Pleiotropic Effects of Biguanides on Mitochondrial Reactive Oxygen Species Production” (Oxidative Medicine and Cellular Longevity, 2017):
pIC50: −log10 of the molar value.

Key:
[1] = test system: H2O2 (ROS) production of BAT mitochondria; test: Fluorometric detection of hydrogen peroxide production (Amplex UltraRed) in fresh BAT mitochondria; assay type: biochemical, rat; conditions: for ROS production on titration, all substrates tested: metformin 0–200 mM or phenformin 0–60 mM, pattern highly similar for all substrates
Experimental: (§1) We used interscapular brown adipose tissue (BAT) of four-week-old Wistar rats kept at 22°C under 12 h/12 h light/dark cycle on a standard diet and water supply ad libitum. All animal works were approved by the institutional ethics committee and were in accordance with the EU Directive 2010/63/EU for animal experiments. Mitochondria were isolated in STE medium (250 mM sucrose, 10 mM Tris–HCl, 1 mM EDTA, pH 7.4) and supplemented with BSA (10 mg/mL) by differential centrifugation. Quality of isolation was routinely checked by oxygraph, and fresh mitochondria were used for measurements of oxygen consumption and hydrogen peroxide production. Subsequently, frozen-thawed mitochondria were used for determination of enzymatic activities; as in such preparations, the integrity of mitochondrial membrane is disrupted and NADH has therefore access to the oxidation site of NDH. Also, freezing/thawing ensures that the membrane potential is not maintained.
Hydrogen peroxide production was determined fluorometrically by measuring oxidation of Amplex UltraRed (Thermo Fisher) essentially as before. Fluorescence of the Amplex UltraRed oxidation product was measured at 37°C using Tecan Infinite M200 multiwell fluorometer. Excitation/emission wavelengths were 544 nm (bandwidth 15 nm)/590 nm (bandwidth 30 nm). The assay was performed with 10 μg of mitochondrial protein in KCl-based medium (120 mM KCl, 3 mM HEPES, 5 mM KH2PO4, 3 mM MgSO4, 1 mM EGTA, 3 mg/mL BSA, pH 7.2) supplemented either with 10 mM pyruvate plus 2 mM malate, 10 mM succinate, or 10 mM GP. Amplex UltraRed was used at the final concentration of 50 μM with horseradish peroxidase (HRP) at 1 U/mL. Fluorescence signal from the well containing all substrates and inhibitors, but not mitochondria, was subtracted as a background for every experimental condition used. Background, caused mostly by autoxidation of the dye or nonenzymatic effect of inhibitors on apparent ROS production, varied between conditions from 0 to 1 pmol/s/mg and was uniform across respective titration points. Signal was calibrated using H2O2 at the final concentration of 0–5 μM, and H2O2 stock concentration was routinely checked by measuring its absorption at 240 nm.

[2] = target: T1, succinate dehydrogenase (SDH) (Rattus norvegicus, UniProt P21913+Q641Z9+Q6PCT8+Q920L2); test: SDH activity (succinate:CoQ1 oxidoreductase / succinate respiration) in BAT mitochondria; assay type: biochemical
T1 construct: from tissue; host or cells: mitochondria isolated from rat interscapular brown adipose tissue
T1 sequence (Q920L2 35-656): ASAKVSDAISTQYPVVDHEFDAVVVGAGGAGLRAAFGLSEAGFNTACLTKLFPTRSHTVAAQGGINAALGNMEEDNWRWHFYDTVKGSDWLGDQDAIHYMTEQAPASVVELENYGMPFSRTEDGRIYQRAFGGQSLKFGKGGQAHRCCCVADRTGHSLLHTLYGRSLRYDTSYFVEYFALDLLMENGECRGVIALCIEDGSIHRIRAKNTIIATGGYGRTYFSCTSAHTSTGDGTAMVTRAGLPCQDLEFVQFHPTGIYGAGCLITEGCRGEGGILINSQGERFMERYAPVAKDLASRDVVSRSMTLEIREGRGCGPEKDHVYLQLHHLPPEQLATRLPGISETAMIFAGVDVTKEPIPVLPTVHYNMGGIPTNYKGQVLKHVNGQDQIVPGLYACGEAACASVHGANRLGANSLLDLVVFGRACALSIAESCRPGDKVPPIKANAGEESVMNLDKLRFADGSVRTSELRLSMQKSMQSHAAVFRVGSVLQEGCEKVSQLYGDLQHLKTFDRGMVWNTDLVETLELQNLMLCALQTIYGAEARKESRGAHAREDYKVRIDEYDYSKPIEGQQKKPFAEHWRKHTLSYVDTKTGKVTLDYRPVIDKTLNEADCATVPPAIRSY
T1 sequence (P21913 31-282): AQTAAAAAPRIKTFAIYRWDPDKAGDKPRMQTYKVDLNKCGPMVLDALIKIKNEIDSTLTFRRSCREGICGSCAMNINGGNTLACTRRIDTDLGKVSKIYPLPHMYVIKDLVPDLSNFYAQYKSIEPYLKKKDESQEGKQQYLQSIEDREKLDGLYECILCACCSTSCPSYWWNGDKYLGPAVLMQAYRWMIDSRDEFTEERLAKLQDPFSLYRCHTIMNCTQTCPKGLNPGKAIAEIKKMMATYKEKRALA
T1 sequence (Q641Z9 30-169 limits assumed): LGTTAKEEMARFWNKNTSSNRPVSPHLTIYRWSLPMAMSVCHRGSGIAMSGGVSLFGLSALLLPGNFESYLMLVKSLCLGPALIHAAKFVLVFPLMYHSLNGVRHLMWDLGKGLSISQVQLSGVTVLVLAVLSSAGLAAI
T1 sequence (Q6PCT8 57-159): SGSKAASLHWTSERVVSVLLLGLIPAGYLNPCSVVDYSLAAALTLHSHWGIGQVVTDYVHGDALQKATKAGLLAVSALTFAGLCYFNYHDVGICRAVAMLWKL
Experimental: as §1, with “Subsequently, frozen-thawed mitochondria were used for determination of enzymatic activities; as in such preparations, the integrity of mitochondrial membrane is disrupted and NADH has therefore access to the oxidation site of NDH. Also, freezing/thawing ensures that the membrane potential is not maintained.” left out
(§2) Activities of mitochondrial dehydrogenases were determined spectrophotometrically as NADH oxidoreductases (NDH, monitored at 340 nm, ε340 = 6.22 mM^−1·cm^−1) or CoQ1 oxidoreductases (SDH and mGPDH, monitored at 275 nm, ε275 = 13.6 mM^−1·cm^−1). […] The reaction was started by adding 100 μM NADH, 25 mM glycerophosphate (GP), or 25 mM succinate, respectively, and after 5–10 minutes, changes of absorbance were monitored at 30°C. Enzyme activities were expressed as pmol/s/mg protein.
Oxygen consumption was measured at 30°C as described before using Oxygraph-2k (Oroboros, Austria). […]

[3] = target: T2, mitochondrial glycerophosphate dehydrogenase (mGPDH) (Rattus norvegicus, UniProt P35571); test: mGPDH activity (glycerophosphate:CoQ1 oxidoreductase) in BAT mitochondria; assay type: biochemical
T2 construct: from tissue; host or cells: mitochondria isolated from rat interscapular brown adipose tissue
T2 sequence (P35571 43-727): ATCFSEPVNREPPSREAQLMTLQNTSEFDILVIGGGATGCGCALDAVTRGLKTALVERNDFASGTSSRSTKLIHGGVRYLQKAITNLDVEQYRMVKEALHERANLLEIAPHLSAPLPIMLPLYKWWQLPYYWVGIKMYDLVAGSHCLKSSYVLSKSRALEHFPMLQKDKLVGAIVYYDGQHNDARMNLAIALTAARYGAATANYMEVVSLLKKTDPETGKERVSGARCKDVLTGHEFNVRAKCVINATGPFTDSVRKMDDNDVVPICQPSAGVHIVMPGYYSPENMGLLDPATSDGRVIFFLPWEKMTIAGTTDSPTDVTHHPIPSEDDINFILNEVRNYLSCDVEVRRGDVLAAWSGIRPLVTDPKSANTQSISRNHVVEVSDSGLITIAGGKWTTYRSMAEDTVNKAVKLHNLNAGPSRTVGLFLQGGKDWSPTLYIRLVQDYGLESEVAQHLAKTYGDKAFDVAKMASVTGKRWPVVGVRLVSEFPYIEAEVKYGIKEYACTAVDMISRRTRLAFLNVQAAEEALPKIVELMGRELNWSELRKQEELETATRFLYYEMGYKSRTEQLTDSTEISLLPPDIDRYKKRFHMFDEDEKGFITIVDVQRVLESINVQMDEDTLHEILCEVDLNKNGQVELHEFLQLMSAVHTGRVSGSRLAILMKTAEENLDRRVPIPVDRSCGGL
Experimental: as §1, with “Also, freezing/thawing ensures that the membrane potential is not maintained.” left out
as §2

[4] = target: respiratory chain dehydrogenases NDH, SDH, and mGPDH; test: Enzyme activity assays of mitochondrial dehydrogenases in frozen-thawed BAT mitochondria (spectrophotometry); assay type: biochemical, rat; conditions: isolated BAT mitochondria, range over all three enzymes, read-out: IC50, inhibition of respiratory chain dehydrogenase enzyme activities (NDH, SDH, mGPDH)
Experimental: as §1, with “Also, freezing/thawing ensures that the membrane potential is not maintained.” left out
as §2

[5] = test system: NADH dehydrogenase (complex I, NDH); test: NDH enzyme activity (NADH oxidoreductase) in BAT mitochondria; assay type: biochemical, rat
Experimental: as §1, with “Also, freezing/thawing ensures that the membrane potential is not maintained.” left out
as §2

[6] = reported values; cited from earlier work
[7] = test system: respiration of BAT mitochondria (pyruvate plus malate, succinate, glycerophosphate); test: Polarographic oxygen consumption of isolated BAT mitochondria with substrates of NDH, SDH and mGPDH; assay type: biochemical, rat; conditions: at the same concentrations as enzyme inhibition (IC50 80 to 180 mM)
Experimental: as §1
(§3) Oxygen consumption was measured at 30°C as described before using Oxygraph-2k (Oroboros, Austria). Measurements were performed in 2 mL of KCl medium (80 mM KCl, 10 mM Tris–HCl, 3 mM MgCl2, 1 mM EDTA, 5 mM K-Pi, pH 7.4) using 15–60 μg protein/mL of freshly isolated mitochondria. For measurements, 10 mM pyruvate plus 2 mM malate, 10 mM succinate, or 10 mM GP, respectively, were used. The oxygen consumption was expressed in pmol oxygen/s/mg protein.

treated patients = conditions: cited from earlier work
[8] = test system: pyruvate plus malate-supported oxygen consumption (NDH); test: Pyruvate plus malate-supported oxygen consumption of BAT mitochondria; assay type: biochemical, rat
Experimental: as §1, §3

For `COc1[nH]c(=O)c(C(=O)[C@@H](C)C[C@H](C)[C@@H](Cl)CCl)c(O)c1OC` [atpenin A5], the “ROS production with low levels of succinate” value ([1]; 0.4 mM succinate, 0.5 μM atpenin A5) was “pronounced increase in ROS production” and the “Concentration of complete inhibition of SDH” value ([2]; succinate as a substrate) was 20 nM.

With `O=C(O)CCC(=O)Nc1ccc(-c2nc3ccccc3[nH]2)cc1` [iGP-1] the “GP-dependent ROS production” value ([1]; 10 mM glycerophosphate, 100 μM iGP-1) was “inhibited”, the “Concentration at which activity of mGPDH was abolished” value [3] was 50 µM and the pIC50 ([2]; enzyme activity and oxygen consumption, 10 mM succinate (Figures 4(b) and 4(d)), read-out: IC50, nonspecific action on SDH) was roughly 4.10.

In the case of `CN(C)C(=N)N=C(N)N` [metformin, dimethyl biguanide], the pIC50 [4] was less than 1.10, the “ROS production on titration, all substrates tested” value [1] was “dose-dependent increase in ROS production” and the “Sensitivity of NDH activity to inhibitory action relative to SDH and mGPDH” value ([5]; metformin titration 0–200 mM, 100 μM NADH) was “most sensitive”. For the same compound, the Concentration inside tumors [6] was 1000 to 10000 nM and the “Effect on respiration with pyruvate and malate, succinate and glycerophosphate” value [7] was “inhibited respiration”.

In the case of `[H]/N=C(/N)N/C(=N/[H])NCCc1ccccc1` [phenformin], the “ROS production on titration, all substrates tested” value [1] is given as “dose-dependent increase in ROS production” and the “Adverse effect leading to discontinued use” value (treated patients) is given as “induction of lactic acidosis”.

In the case of `C=C(C)[C@H]1Cc2c(ccc3c2O[C@@H]2COc4cc(OC)c(OC)cc4[C@@H]2C3=O)O1` [rotenone], the “Rate of H2O2 production with NADH-linked substrates” value ([1]; 10 mM pyruvate and 2 mM malate, 1 μM rotenone) was “increased the rate of H2O2 production”, the “Concentration of complete inhibition of complex I enzyme activity” value ([5]; BAT mitochondria) was 500 nM and the “Concentration of complete inhibition of pyruvate plus malate-supported oxygen consumption” value [8] was 500 nM.
